Source: ChEMBL document CHEMBL4033690, “Potential anti-gout constituents as xanthine oxidase inhibitor from the fruits of Stauntonia brachyanthera” (Bioorg Med Chem, 2017)

Biological target: Xanthine dehydrogenase/oxidase (Homo sapiens, UniProt P47989)
Assay: Inhibition of xanthine oxidase (unknown origin) using xanthine as substrate preincubated for 15 mins followed by substrate addition by spectrophotometric method

Sequence of Xanthine dehydrogenase/oxidase (P47989 whole entry): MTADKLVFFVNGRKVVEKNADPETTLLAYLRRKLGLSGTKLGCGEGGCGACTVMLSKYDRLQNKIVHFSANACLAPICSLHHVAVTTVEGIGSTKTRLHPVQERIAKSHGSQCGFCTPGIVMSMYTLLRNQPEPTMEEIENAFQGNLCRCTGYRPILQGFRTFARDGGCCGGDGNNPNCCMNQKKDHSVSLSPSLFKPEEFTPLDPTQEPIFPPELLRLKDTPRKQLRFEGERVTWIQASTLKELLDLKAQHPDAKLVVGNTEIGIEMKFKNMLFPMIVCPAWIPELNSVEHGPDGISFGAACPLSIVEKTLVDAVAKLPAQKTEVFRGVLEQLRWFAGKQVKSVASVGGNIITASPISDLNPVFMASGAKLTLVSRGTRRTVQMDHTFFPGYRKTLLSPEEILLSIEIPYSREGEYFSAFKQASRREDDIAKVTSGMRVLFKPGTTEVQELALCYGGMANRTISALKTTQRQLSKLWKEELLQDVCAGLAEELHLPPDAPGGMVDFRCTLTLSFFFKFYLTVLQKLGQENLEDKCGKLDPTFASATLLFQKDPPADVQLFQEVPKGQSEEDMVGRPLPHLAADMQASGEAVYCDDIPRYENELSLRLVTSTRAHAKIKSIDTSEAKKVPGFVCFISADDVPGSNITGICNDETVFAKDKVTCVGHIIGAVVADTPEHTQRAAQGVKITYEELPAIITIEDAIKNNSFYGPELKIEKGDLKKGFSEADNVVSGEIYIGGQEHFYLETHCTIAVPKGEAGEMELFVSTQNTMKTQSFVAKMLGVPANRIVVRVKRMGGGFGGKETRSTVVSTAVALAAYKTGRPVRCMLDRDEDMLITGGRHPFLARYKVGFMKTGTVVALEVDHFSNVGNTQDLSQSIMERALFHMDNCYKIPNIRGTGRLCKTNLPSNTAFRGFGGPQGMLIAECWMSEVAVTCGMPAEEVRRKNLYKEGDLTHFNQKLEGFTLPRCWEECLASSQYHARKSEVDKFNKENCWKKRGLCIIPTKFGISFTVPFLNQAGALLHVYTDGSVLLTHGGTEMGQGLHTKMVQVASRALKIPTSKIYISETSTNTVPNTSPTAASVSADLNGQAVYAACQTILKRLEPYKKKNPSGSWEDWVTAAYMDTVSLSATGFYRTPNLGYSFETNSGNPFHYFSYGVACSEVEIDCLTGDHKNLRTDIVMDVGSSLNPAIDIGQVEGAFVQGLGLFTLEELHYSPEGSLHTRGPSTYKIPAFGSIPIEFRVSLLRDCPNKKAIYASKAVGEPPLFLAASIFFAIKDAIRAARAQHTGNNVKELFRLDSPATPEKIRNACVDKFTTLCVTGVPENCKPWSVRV

IC50 [µM] | Compound
1.6 | O=c1c(O[C@@H]2O[C@H](CO)[C@@H](O)[C@H](O)[C@H]2O)c(-c2ccc(O)c(O)c2)oc2cc(O)cc(O)c12 [ISOQUERCETIN]
> 100 | COc1cc(C(=O)OC[C@@]2(O)CO[C@@H](O[C@H]3[C@H](Oc4ccc(C(=O)O)cc4OC)O[C@H](CO)[C@@H](O)[C@@H]3O)[C@@H]2O)ccc1O
> 100 | C=C1CC[C@]2(C(=O)O[C@@H]3O[C@H](CO[C@@H]4O[C@H](CO)[C@@H](O[C@@H]5O[C@@H](C)[C@H](O)[C@@H](O)[C@H]5O)[C@H](O)[C@H]4O)[C@@H](O)[C@H](O)[C@H]3O)CC[C@]3(C)C(=CC[C@@H]4[C@@]5(C)CC[C@H](O[C@@H]6O[C@H](CO)[C@@H](O)[C@H](O[C@@H]7OC[C@H](O)[C@H](O)[C@H]7O[C@@H]7O[C@@H](C)[C@H](O)[C@@H](O)[C@H]7O)[C@H]6O)C(C)(C)[C@@H]5CC[C@]43C)[C@@H]2C1
